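Values below derive from 48-hour exposures of cells grown in 96-well plates, with endpoints linearly interpolated between the two concentrations bracketing the appropriate inhibition level. The concentration for full growth arrest is given as TGI.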
Columns and labels:
Assay in all cases: NCI tumour cell line growth inhibition, 48 h
[1] = system: A549 NSCLC
[2] = system: ACHN renal
[3] = system: BT-549 breast
[4] = system: DLD-1 colon
[5] = system: DMS 114 small cell lung
[6] = system: HOP-18 NSCLC
[7] = system: KM20L2 colon
[8] = system: LXFL 529 NSCLC
[9] = system: M19-MEL melanoma
[10] = system: SNB-78 CNS
[11] = system: XF 498 CNS
[12] = system: DMS 273 small cell lung

Row | Structure (SMILES) | TGI [1] | TGI [2] | TGI [3] | also measured
1 | N=C(N)C(N=Nc1ccccc1)C(N)=O (stereo not drawn) | > 100 µM | > 100 µM | > 100 µM | –
2 | Cc1cc(OCc2nn(CN3CCN(C)CC3)c(=S)n2/N=C/c2ccc(-c3ccc(Cl)cc3Cl)o2)ccc1Cl | – | > 100 µM | – | –
3 | COc1cccc(Nc2nc(-c3cccs3)nc3ccc(Br)cc23)c1 | > 100 µM | > 100 µM | > 100 µM | –
4 | Nc1ccc2nc3ccc(N)cc3[n+](-c3ccccc3)c2c1 | > 100 µM | > 100 µM | > 100 µM | –
5 | Cc1cc(NC(=O)NC(=O)c2ccccc2N)ccc1Oc1ncc(Br)cn1 | 20.7 µM | > 100 µM | – | TGI [4]: > 47.9 µM; TGI [5]: 0.0209 µM; TGI [6]: > 78 µM; TGI [7]: 0.442 µM; TGI [8]: > 57.2 µM; TGI [9]: > 100 µM; TGI [10]: > 100 µM; TGI [11]: 67.6 µM
6 | CC(C)(C)[Si](C)(C)OCC1OC(n2ccc(=O)[nH]c2=O)C(O[Si](C)(C)C(C)(C)C)[C@@]12O[C@H]2C(N)=O (stereo partly drawn) | 25.9 µM | 16.5 µM | 40.2 µM | –
7 | Cc1nc(Nc2ccc(F)cc2)c2sc(=S)n(-c3ccc(F)cc3)c2n1 | 29.5 µM | 27 µM | 27.1 µM | –
8 | Cc1nn(C(=O)c2ccncc2)c2c1C(c1ccc(Cl)cc1)SC(N)=N2 (stereo not drawn) | > 10 µM | > 10 µM | > 10 µM | –
9 | O=C1CCCCC1=C(I)I | > 100 µM | 31.7 µM | 26.8 µM | –
10 | CCOP(=O)(OCC)/C(C#N)=C/c1ccc(-c2ccc(F)cc2F)o1 | 30.2 µM | 26.6 µM | 24.5 µM | –
11 | CCOP(=O)(OCC)C(Nc1cccc([N+](=O)[O-])c1)c1ccccc1 (stereo not drawn) | > 100 µM | > 100 µM | > 100 µM | –
12 | C=CC(C)(C)C(=C)C(=O)N(C)c1ccccc1I | > 100 µM | > 100 µM | – | –
13 | C=C1CCC2CC1[C@@H](C(=O)c1c[nH]c3ccccc13)NC2(C)C (stereo partly drawn) | > 37.5 µM | > 37.5 µM | > 37.5 µM | –
14 | C=CCOC1=C(OCC=C)C(C2COC(C)(C)O2)OC1=O (stereo not drawn) | > 100 µM | > 100 µM | > 100 µM | –
15 | COc1cc(C[C@H]2C(=O)OC[C@@H]2Cc2ccc(OC)c(OC)c2)cc(OC)c1 | > 100 µM | > 100 µM | > 100 µM | –
16 | C(=C\c1nccs1)/c1cccc(/C=C/c2nccs2)n1 | > 50 µM | > 50 µM | > 50 µM | –
17 | COc1cc2c(cc1OC)CC(=O)c1cc(OC)c(OC)cc1/C=C\2 | > 12.5 µM | > 12.5 µM | – | –
18 | CCN(CC)c1ccc(C2SCC(=O)N2c2ccc(NC(=O)c3ccc(N4C(=O)CSC4c4ccc(N(CC)CC)cc4)cc3)cc2)cc1 (stereo not drawn) | > 100 µM | > 100 µM | > 100 µM | –
19 | CCN(CCCN(CC)C(=O)Nc1ccccc1)C(=O)Nc1ccccc1 | > 100 µM | > 100 µM | > 100 µM | –
20 | CC(C)C1OC2(C)OC(=N)C1(C#N)C(C#N)(C#N)C2C (stereo not drawn) | > 100 µM | > 100 µM | > 100 µM | –

Row | Structure (SMILES) | TGI [1] | TGI [2] | TGI [3] | also measured
21 | COc1cc2nc(-c3cccs3)nc(N3C(c4ccc(O)cc4)=NNC(=O)c4ccccc43)c2cc1OC | > 100 µM | 55 µM | 42.8 µM | –
22 | COc1ccc(-c2cc(-c3ccc(Nc4ccnc5cc(Cl)ccc45)cc3)nc(N)c2C#N)cc1 | > 100 µM | > 100 µM | > 100 µM | –
23 | C(=Nc1ccc(-c2cc(-c3ccccc3)nc3ccc4ccccc4c23)cc1)c1ccccc1 | 62.2 µM | > 100 µM | – | –
24 | CN(C)CCCNc1ncnc2nc[nH]c12 | > 100 µM | > 100 µM | > 100 µM | –
25 | C=C(C(=O)O)C1CCC(CC/C=C(\C)CC/C=C(\C)CCC=C(C)C)CO1 (stereo not drawn) | 32.4 µM | > 100 µM | 61.8 µM | –
26 | CCN(CC)CCC1CCCCN1CC(=O)N1c2ccccc2NC(=O)c2ccccc21 (stereo not drawn) | > 100 µM | > 100 µM | – | –
27 | OCC1OC(Oc2cc(O)cc(/C=C/c3ccc(O)cc3)c2)C(O)C(O)C1O (stereo not drawn) | > 100 µM | > 100 µM | > 100 µM | –
28 | C/C(=N\Nc1ccccc1Br)c1cccc(/C(C)=N/Nc2ccccc2Br)n1 | > 100 µM | > 100 µM | > 100 µM | –
29 | NC1=NNC2(C(=O)N1)c1ccccc1-c1ccccc12 | > 10 µM | > 10 µM | – | –
30 | NC1CC(N)c2c(Br)sc(Br)c21 (stereo not drawn) | > 100 µM | > 100 µM | > 100 µM | –
31 | C=CCOc1ccc(/C(N=Nc2ccccc2)=N/NC(=O)c2ccccc2)cc1OC | > 100 µM | > 100 µM | > 100 µM | –
32 | CN(C(=O)c1ccc(Cl)cc1)C(=S)N1CCN(c2ccccn2)CC1 | > 100 µM | > 100 µM | – | TGI [4]: > 100 µM; TGI [5]: > 100 µM; TGI [12]: > 100 µM; TGI [6]: > 100 µM; TGI [7]: > 100 µM; TGI [8]: > 100 µM; TGI [9]: > 100 µM; TGI [10]: > 100 µM
33 | CN=CN(C)c1c2ccccc2nc2ccccc12 | > 100 µM | > 100 µM | – | –
34 | Cc1cccc2c(=O)c3c(O)cc(O)cc3[nH]c12 | > 10 µM | > 10 µM | > 10 µM | –
35 | CCOP1(=O)C=C(Sc2ccc([N+](=O)[O-])cc2[N+](=O)[O-])C(C)(C)O1 (stereo not drawn) | 44.3 µM | 28 µM | 32.2 µM | –
36 | Cc1nc(-n2[nH]c(C)c(CCO)c2=O)[nH]c(=O)c1CCO | > 100 µM | > 100 µM | > 100 µM | –
37 | CCO[C@@H]1CCC(S(=O)c2ccc(C)cc2)=CO1 (stereo partly drawn) | – | > 100 µM | > 100 µM | –
38 | CCCCCCCCCCCCCCCCCCNc1ccn(C2OC(CO)C(O)C2O)c(=O)n1 (stereo not drawn) | > 100 µM | > 100 µM | > 100 µM | –
39 | O=C(O)CCC(NC(=O)c1ccc(Nc2cnc3ccc(C(F)(F)F)cc3n2)cc1)C(=O)O (stereo not drawn) | > 100 µM | > 100 µM | > 100 µM | –
40 | COc1cc(Cl)cc(N(O)C(C)=O)c1OCc1ccccc1 | > 100 µM | > 100 µM | – | TGI [4]: > 100 µM; TGI [5]: 71.5 µM; TGI [12]: > 100 µM; TGI [6]: > 100 µM; TGI [7]: > 100 µM; TGI [8]: > 100 µM; TGI [9]: > 100 µM; TGI [10]: > 100 µM; TGI [11]: > 100 µM

Source: PubChem BioAssay (NCI)
